In PubChem BioAssay (NCI):
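Where inhibition never reached the appropriate level, the endpoint shown equals the highest concentration tested. Otherwise, values were interpolated linearly from a five-concentration, 48-hour dose response in 96-well plates. GI50 is the concentration that inhibits growth by half. Definition used: TGI = concentration required for complete inhibition of growth.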

Key:
Experiment in all cases: growth of human tumour cells (NCI), 48 h
OVCAR-5 ovarian = test system: OVCAR-5 ovarian
HL-60(TB) leukemia = test system: HL-60(TB) leukemia
UO-31 renal = test system: UO-31 renal
OVCAR-3 ovarian = test system: OVCAR-3 ovarian
UACC-257 melanoma = test system: UACC-257 melanoma
IGROV1 ovarian = test system: IGROV1 ovarian
K-562 leukemia = test system: K-562 leukemia
SF-268 CNS = test system: SF-268 CNS
MOLT-4 leukemia = test system: MOLT-4 leukemia
A549 NSCLC = test system: A549 NSCLC
NCI-H522 lung = test system: NCI-H522 lung
MDA-MB-468 breast = test system: MDA-MB-468 breast
U251 CNS = test system: U251 CNS
NCI-H23 lung = test system: NCI-H23 lung
HCT-15 colon = test system: HCT-15 colon
HCC-2998 colon = test system: HCC-2998 colon
M14 melanoma = test system: M14 melanoma
BT-549 breast = test system: BT-549 breast
SF-295 CNS = test system: SF-295 CNS
OVCAR-8 ovarian = test system: OVCAR-8 ovarian
MDA-MB-231 breast = test system: MDA-MB-231 breast
ACHN renal = test system: ACHN renal
HCT-116 colon = test system: HCT-116 colon
HS 578T breast = test system: HS 578T breast
UACC-62 melanoma = test system: UACC-62 melanoma
SK-OV-3 ovarian = test system: SK-OV-3 ovarian
HOP-62 NSCLC = test system: HOP-62 NSCLC
LOX IMVI melanoma = test system: LOX IMVI melanoma
T-47D breast = test system: T-47D breast
NCI-H460 lung = test system: NCI-H460 lung
CAKI-1 renal = test system: CAKI-1 renal
786-0 renal = test system: 786-0 renal
OVCAR-4 ovarian = test system: OVCAR-4 ovarian
HT29 colon = test system: HT29 colon
COLO 205 colon = test system: COLO 205 colon
SW-620 colon = test system: SW-620 colon
RPMI-8226 leukemia = test system: RPMI-8226 leukemia
CCRF-CEM leukemia = test system: CCRF-CEM leukemia
MDA-MB-435 = test system: MDA-MB-435
SN12C renal = test system: SN12C renal
HOP-92 NSCLC = test system: HOP-92 NSCLC
DU-145 prostate = test system: DU-145 prostate
MALME-3M melanoma = test system: MALME-3M melanoma
EKVX NSCLC = test system: EKVX NSCLC
KM12 colon = test system: KM12 colon
MCF7 breast = test system: MCF7 breast
PC-3 prostate = test system: PC-3 prostate
A498 renal = test system: A498 renal
NCI-H226 lung = test system: NCI-H226 lung
SK-MEL-28 melanoma = test system: SK-MEL-28 melanoma
TK-10 renal = test system: TK-10 renal
SK-MEL-2 melanoma = test system: SK-MEL-2 melanoma
SF-539 CNS = test system: SF-539 CNS
SR leukemia = test system: SR leukemia
SK-MEL-5 melanoma = test system: SK-MEL-5 melanoma
RXF 393 renal = test system: RXF 393 renal
SNB-75 CNS = test system: SNB-75 CNS

O=C(/C=C/c1ccc(F)cc1)c1nc2ccccc2n1Cc1ccc(Br)cc1
GI50 (OVCAR-5 ovarian): 1940 nM
TGI (OVCAR-5 ovarian): 4.16 µM
GI50 (HL-60(TB) leukemia): 2020 nM
TGI (HL-60(TB) leukemia): 6.3 µM
GI50 (UO-31 renal): 1420 nM
TGI (UO-31 renal): 2930 nM
GI50 (OVCAR-3 ovarian): 1760 nM
TGI (OVCAR-3 ovarian): 3.42 µM
GI50 (UACC-257 melanoma): 3.2 µM
TGI (UACC-257 melanoma): 14.7 µM
GI50 (IGROV1 ovarian): 2310 nM
TGI (IGROV1 ovarian): 5.81 µM
GI50 (K-562 leukemia): 2840 nM
TGI (K-562 leukemia): > 100 µM
GI50 (SF-268 CNS): 3.58 µM
TGI (SF-268 CNS): 67.8 µM
GI50 (MOLT-4 leukemia): 2410 nM
TGI (MOLT-4 leukemia): 8.96 µM
GI50 (A549 NSCLC): 3.93 µM
TGI (A549 NSCLC): 35.3 µM
GI50 (NCI-H522 lung): 2170 nM
TGI (NCI-H522 lung): 4.68 µM
GI50 (MDA-MB-468 breast): 1900 nM
TGI (MDA-MB-468 breast): 4.12 µM
GI50 (U251 CNS): 1540 nM
TGI (U251 CNS): 2990 nM
GI50 (NCI-H23 lung): 1950 nM
TGI (NCI-H23 lung): 4.37 µM
GI50 (HCT-15 colon): 1670 nM
TGI (HCT-15 colon): 3.46 µM
GI50 (HCC-2998 colon): 1810 nM
TGI (HCC-2998 colon): 3.36 µM
GI50 (M14 melanoma): 2330 nM
TGI (M14 melanoma): 6.43 µM
GI50 (BT-549 breast): 2240 nM
TGI (BT-549 breast): 5.81 µM
GI50 (SF-295 CNS): 2140 nM
TGI (SF-295 CNS): 5.29 µM
GI50 (OVCAR-8 ovarian): 2260 nM
TGI (OVCAR-8 ovarian): 5.51 µM
GI50 (MDA-MB-231 breast): 2100 nM
TGI (MDA-MB-231 breast): 4.66 µM
GI50 (ACHN renal): 2800 nM
TGI (ACHN renal): 8.7 µM
GI50 (HCT-116 colon): 1960 nM
TGI (HCT-116 colon): 4.26 µM
GI50 (HS 578T breast): 3.71 µM
TGI (HS 578T breast): 43.3 µM
GI50 (UACC-62 melanoma): 1740 nM
TGI (UACC-62 melanoma): 4.3 µM
GI50 (SK-OV-3 ovarian): 10.5 µM
TGI (SK-OV-3 ovarian): > 100 µM
GI50 (HOP-62 NSCLC): 2100 nM
TGI (HOP-62 NSCLC): 4.87 µM
GI50 (LOX IMVI melanoma): 1590 nM
TGI (LOX IMVI melanoma): 3.06 µM
GI50 (T-47D breast): 2680 nM
TGI (T-47D breast): 11.3 µM
GI50 (NCI-H460 lung): 1890 nM
TGI (NCI-H460 lung): 4 µM
GI50 (CAKI-1 renal): 1970 nM
TGI (CAKI-1 renal): 5.74 µM
GI50 (786-0 renal): 1930 nM
TGI (786-0 renal): 3.89 µM
GI50 (OVCAR-4 ovarian): 4.3 µM
TGI (OVCAR-4 ovarian): 51.4 µM
GI50 (HT29 colon): 2370 nM
TGI (HT29 colon): 4.93 µM
GI50 (COLO 205 colon): 2350 nM
TGI (COLO 205 colon): 5.55 µM
GI50 (SW-620 colon): 2140 nM
TGI (SW-620 colon): 4.44 µM
GI50 (RPMI-8226 leukemia): 2290 nM
TGI (RPMI-8226 leukemia): 6.87 µM
GI50 (CCRF-CEM leukemia): 1620 nM
TGI (CCRF-CEM leukemia): 8.35 µM
GI50 (MDA-MB-435): 1850 nM
TGI (MDA-MB-435): 4.19 µM
GI50 (SN12C renal): 3.02 µM
TGI (SN12C renal): 11.1 µM
GI50 (HOP-92 NSCLC): 2030 nM
TGI (HOP-92 NSCLC): 12.1 µM
GI50 (DU-145 prostate): 3.47 µM
TGI (DU-145 prostate): 26 µM
GI50 (MALME-3M melanoma): 1830 nM
TGI (MALME-3M melanoma): 4.17 µM
GI50 (EKVX NSCLC): 2620 nM
TGI (EKVX NSCLC): 7.78 µM
GI50 (KM12 colon): 2130 nM
TGI (KM12 colon): 5.22 µM
GI50 (MCF7 breast): 1720 nM
TGI (MCF7 breast): 9.27 µM
GI50 (PC-3 prostate): 3.37 µM
TGI (PC-3 prostate): 13.7 µM
GI50 (A498 renal): 17.2 µM
TGI (A498 renal): 32.1 µM
GI50 (NCI-H226 lung): 2960 nM
TGI (NCI-H226 lung): 13.1 µM
GI50 (SK-MEL-28 melanoma): 1850 nM
TGI (SK-MEL-28 melanoma): 3.77 µM
GI50 (TK-10 renal): 2730 nM
TGI (TK-10 renal): 8.11 µM
GI50 (SK-MEL-2 melanoma): 2120 nM
TGI (SK-MEL-2 melanoma): 4.74 µM
GI50 (SF-539 CNS): 1910 nM
TGI (SF-539 CNS): 3.8 µM
GI50 (SR leukemia): 2790 nM
TGI (SR leukemia): > 100 µM
GI50 (SK-MEL-5 melanoma): 2360 nM
TGI (SK-MEL-5 melanoma): 6.69 µM
GI50 (RXF 393 renal): 1480 nM
TGI (RXF 393 renal): 2890 nM
GI50 (SNB-75 CNS): 1200 nM
TGI (SNB-75 CNS): 12.2 µM
